In patent US10738001B2, “Hydrofluoroolefins and methods of using same” (priority 2015, dated 2020):
Like-named read-outs stand apart in the source and are kept apart here.

How the values were obtained:
[1] = Log KOW (octanol/water partition coefficient) by HPLC, OECD Method 117; type: physicochemical
Protocol: (§1) In these Examples, Log KOWs, (octanol/water partition coefficients), were determined by HPLC using the method described in OECD Method 117. Atmospheric lifetimes were experimentally determined using a relative rate method to determine the hydroxyl radical rate constant.

[2] = Atmospheric lifetime by relative rate method (hydroxyl radical rate constant); type: physicochemical
Protocol: as §1

rats = assay: toxicity screening study in rats, 4 Hr Inhalation LC50

Compound	Log KOW (octanol/water partition coefficient measured by HPLC) [1]	atmospheric lifetime [2] [years]	4 Hr Inhalation LC50 (rats)	Log KOW (octanol/water partition coefficient measured by HPLC) ([1]; HPLC, OECD Method 117, average value for the E/Z product mixtures of Examples 1-3)	chromatographic logP [1]	chromatographic logP ([1]; octanol/water, HPLC, OECD Method 117, average value for the E/Z product mixtures of Examples 1-3, read-out: Log KOW (octanol/water partition coefficient measured by HPLC))
4-(E&Z)-(1,2-difluorovinyl)-2,2,3,3,5,5,6,6-octafluoromorpholine [Example 4]	4.31	0.078	> 10,000 ppm	–	–	–
FC(=CC(F)(F)F)N(C(F)(F)F)C(F)(F)C(F)(F)F [Example 1, (E&Z)-1,3,3,3-tetrafluoro-N-(1,1,2,2,2-pentafluoroethyl)-N-(trifluoromethyl)prop-1-en-1-amine]	–	–	–	4.57	–	–
FC(=CC(F)(F)F)N1C(F)(F)C(F)(F)OC(F)(F)C1(F)F [Example 2]	4.80	0.89	> 10,390 ppm	–	–	–
F/C(=C\C(F)(F)F)N(C(F)(F)F)C(F)(F)F [Example 3, (E&Z)-1,3,3,3-tetrafluoro-N,N-bis(trifluoromethyl)prop-1-en-1-amine]	–	1.3	–	–	4.12	–
C=C(F)N1C(F)(F)C(F)(F)OC(F)(F)C1(F)F [Example 6, 2,2,3,3,5,5,6,6-octafluoro-4-(1-fluorovinyl)morpholine]	–	0.095	> 10,000 ppm	–	–	4.33
FC=C(F)N(C(F)(F)C(F)(F)F)C(F)(F)C(F)(F)C(F)(F)F [Example 8, N-(E&Z)-(1,2-difluorovinyl)-1,1,2,2,3,3,3-heptafluoro-N-(perfluoroethyl)propan-1-amine]	4.97	–	–	–	–	–
